The target in assay [1] is Vascular endothelial growth factor receptor 2 (Homo sapiens, UniProt P35968). The format is functional.
The target in assay [2] is Sodium-dependent serotonin transporter (Homo sapiens, UniProt P31645).
Assay [3] has as its target T1, Muscarinic acetylcholine receptor M1 (Homo sapiens, UniProt P11229).
T1 sequence (P11229 whole entry): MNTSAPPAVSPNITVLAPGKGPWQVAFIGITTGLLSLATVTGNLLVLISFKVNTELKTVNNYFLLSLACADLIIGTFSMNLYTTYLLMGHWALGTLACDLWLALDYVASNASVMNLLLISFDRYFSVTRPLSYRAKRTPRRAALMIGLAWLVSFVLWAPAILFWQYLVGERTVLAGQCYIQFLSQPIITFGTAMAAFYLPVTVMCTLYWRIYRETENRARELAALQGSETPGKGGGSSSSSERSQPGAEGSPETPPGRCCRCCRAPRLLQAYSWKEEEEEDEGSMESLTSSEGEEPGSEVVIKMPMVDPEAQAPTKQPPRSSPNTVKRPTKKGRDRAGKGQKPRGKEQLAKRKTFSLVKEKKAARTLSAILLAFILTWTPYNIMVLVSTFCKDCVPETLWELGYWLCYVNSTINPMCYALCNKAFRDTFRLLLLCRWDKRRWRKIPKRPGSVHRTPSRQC
The format is functional, cell-based.

Bounds are passed on as bounds.
Also: assay procedure not described here.

Sequence of Sodium-dependent serotonin transporter (P31645 whole entry): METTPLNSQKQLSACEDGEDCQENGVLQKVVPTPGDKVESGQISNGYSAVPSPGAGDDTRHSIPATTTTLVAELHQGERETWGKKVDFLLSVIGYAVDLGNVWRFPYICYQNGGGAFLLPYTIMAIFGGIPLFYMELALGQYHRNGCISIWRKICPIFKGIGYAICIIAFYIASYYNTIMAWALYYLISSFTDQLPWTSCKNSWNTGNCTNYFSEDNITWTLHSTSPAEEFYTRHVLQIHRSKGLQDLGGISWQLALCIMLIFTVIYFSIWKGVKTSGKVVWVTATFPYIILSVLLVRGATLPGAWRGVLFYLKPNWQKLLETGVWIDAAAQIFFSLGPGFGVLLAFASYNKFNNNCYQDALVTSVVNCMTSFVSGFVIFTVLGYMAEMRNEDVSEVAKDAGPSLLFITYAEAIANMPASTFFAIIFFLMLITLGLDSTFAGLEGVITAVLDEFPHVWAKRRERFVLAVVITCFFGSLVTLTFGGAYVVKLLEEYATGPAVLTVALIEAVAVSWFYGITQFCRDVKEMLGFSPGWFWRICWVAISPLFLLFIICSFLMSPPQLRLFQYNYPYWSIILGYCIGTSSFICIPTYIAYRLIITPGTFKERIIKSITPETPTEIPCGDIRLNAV
Sequence of Vascular endothelial growth factor receptor 2 (P35968 whole entry): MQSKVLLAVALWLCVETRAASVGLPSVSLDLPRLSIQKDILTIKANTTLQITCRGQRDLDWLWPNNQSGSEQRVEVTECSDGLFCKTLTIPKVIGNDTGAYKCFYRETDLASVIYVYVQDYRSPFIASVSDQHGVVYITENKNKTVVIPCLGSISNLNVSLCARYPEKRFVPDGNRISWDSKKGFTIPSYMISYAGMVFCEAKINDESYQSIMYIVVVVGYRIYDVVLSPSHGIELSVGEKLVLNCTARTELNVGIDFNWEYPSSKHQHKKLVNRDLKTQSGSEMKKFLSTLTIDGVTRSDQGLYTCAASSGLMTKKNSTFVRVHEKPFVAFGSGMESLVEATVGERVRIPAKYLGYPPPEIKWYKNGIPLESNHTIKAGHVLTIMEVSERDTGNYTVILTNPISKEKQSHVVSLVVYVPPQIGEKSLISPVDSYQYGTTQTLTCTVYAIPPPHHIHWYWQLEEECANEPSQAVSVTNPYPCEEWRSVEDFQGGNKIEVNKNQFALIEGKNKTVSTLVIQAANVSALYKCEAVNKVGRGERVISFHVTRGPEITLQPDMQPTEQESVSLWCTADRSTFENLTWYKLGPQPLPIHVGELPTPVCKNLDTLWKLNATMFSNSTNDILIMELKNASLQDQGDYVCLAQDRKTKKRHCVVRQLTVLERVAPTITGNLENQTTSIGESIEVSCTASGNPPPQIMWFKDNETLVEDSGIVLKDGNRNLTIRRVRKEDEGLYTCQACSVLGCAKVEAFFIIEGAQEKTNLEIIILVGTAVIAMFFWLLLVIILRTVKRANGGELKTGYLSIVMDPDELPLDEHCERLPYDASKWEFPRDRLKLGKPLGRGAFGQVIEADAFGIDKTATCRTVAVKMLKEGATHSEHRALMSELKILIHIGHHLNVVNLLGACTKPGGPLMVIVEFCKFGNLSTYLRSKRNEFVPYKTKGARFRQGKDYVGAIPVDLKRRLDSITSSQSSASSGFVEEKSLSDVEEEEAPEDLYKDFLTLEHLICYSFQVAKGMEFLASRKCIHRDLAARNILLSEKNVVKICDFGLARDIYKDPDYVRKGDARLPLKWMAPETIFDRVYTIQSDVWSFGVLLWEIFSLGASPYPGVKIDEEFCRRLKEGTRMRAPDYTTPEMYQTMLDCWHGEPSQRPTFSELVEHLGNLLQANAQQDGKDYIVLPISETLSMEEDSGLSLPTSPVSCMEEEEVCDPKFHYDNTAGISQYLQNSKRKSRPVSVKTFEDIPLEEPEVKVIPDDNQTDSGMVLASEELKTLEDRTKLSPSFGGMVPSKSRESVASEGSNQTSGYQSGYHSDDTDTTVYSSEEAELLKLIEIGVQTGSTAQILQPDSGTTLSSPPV

As to `CC(C)OC(=O)CCC/C=C\C[C@@H]1[C@@H](/C=C/C(F)(F)COc2ccccc2)[C@H](O)C[C@@H]1O` [TAFLUPROST], the concentration at half-maximal activity (AC50) in assay [1] is greater than 10 µM; in assay [2], greater than 30 µM; in assay [3] it was greater than 30 µM.
In the case of `N[C@@H](CO)C(=O)O` [SERINE], the concentration at half-maximal activity (AC50) in assay [1], in assay [2] and in assay [3] was greater than 30 µM throughout.
`CC(CN1CC(=O)NC(=O)C1)N1CC(=O)NC(=O)C1` (stereo unspecified) [RAZOXANE]: the concentration at half-maximal activity (AC50) in assay [1], in assay [2] and in assay [3] was greater than 30 µM in each case.
For the compound `C/C=C/C/C=C/CCC(=O)[C@H]1O[C@H]1C(N)=O` [CERULENIN], the AC50 in assay [1], in assay [2] and in assay [3] was greater than 30 µM in each case.
Consider `CC(C)(O)CNc1nc(Nc2ccnc(C(F)(F)F)c2)nc(-c2cccc(C(F)(F)F)n2)n1` [ENASIDENIB], for which the AC50 in assay [1] is 20.5 µM; in assay [2], greater than 30 µM; in assay [3], greater than 30 µM.
In the case of `CC[C@H](c1ccc(O)cc1)[C@@H](CC)c1ccc(O)cc1` [HEXESTROL], the AC50 in assay [1] is greater than 30 µM; in assay [2], greater than 30 µM; in assay [3], 22.8 µM.
`C[C@@H]1C[C@H]2[C@@H]3CCC4=CC(=O)C=C[C@]4(C)[C@@]3(Cl)[C@@H](O)C[C@]2(C)[C@@]1(OC(=O)c1ccco1)C(=O)CCl` [MOMETASONE FUROATE]: the AC50 in assay [1], in assay [2] and in assay [3] was greater than 30 µM throughout.
As to `CC[C@H]1OC(=O)[C@H](C)C(=O)[C@H](C)[C@@H](O[C@@H]2O[C@H](C)C[C@H](N(C)C)[C@H]2O)[C@](C)(OC)C[C@@H](C)C(=O)[C@H](C)[C@H]2N(CCCCn3cnc(-c4cccnc4)c3)C(=O)O[C@]12C` [TELITHROMYCIN], the AC50 in assay [1], in assay [2] and in assay [3] was greater than 30 µM in each case.
Take `CC(=O)Oc1cc(C(F)(F)F)ccc1C(=O)O` [TRIFLUSAL]: the AC50 in assay [1], in assay [2] and in assay [3] was greater than 30 µM in each case.
Turning to `Cc1ccccc1C(=O)Nc1ccc(C(=O)N2CCCC(N(C)C)c3ccccc32)cc1` (stereo unspecified) [MOZAVAPTAN], the values for the AC50 in assay [1], in assay [2] and in assay [3] were greater than 30 µM, 1.26 µM and greater than 30 µM, respectively.
`CN1CCCCC1CCN1c2ccccc2Sc2ccc([S+](C)[O-])cc21` (stereo unspecified) [MESORIDAZINE]: the AC50 in assay [1], in assay [2] and in assay [3] was greater than 30 µM each time.
Take `N[C@@H](CS)C(=O)O` [CYSTEINE]: the AC50 in assay [1], in assay [2] and in assay [3] was greater than 30 µM in each case.

As a reminder, the AC50 is the midpoint of the concentration-response curve, whichever way the signal moves. Lower therefore signals greater potency.

Values taken from ChEMBL document CHEMBL5291721, “A preclinical secondary pharmacology resource illuminates target-adverse drug reaction associations of marketed drugs” (Nat Commun, 2023).
